Laboratory results reported in PMC9061822, “A novel SRSF3 inhibitor, SFI003, exerts anticancer activity against colorectal cancer by modulating the SRSF3/DHCR24/ROS axis” (Cell Death Discovery, 2022).
Each block holds one molecule with its values, some of them ahead of it.

Tests used:
ROS = assay: Detection of ROS (DCFH-DA) in HCT-116 and SW480 cells; assay type: cell-based, Human; conditions: 20 μM SFI003 with 5 mM NAC or 100 μM Trolox, 72 h
Procedure: Following treatment with SFI003 or siRNA, the cells were washed with PBS and incubated with DCFH-DA for 20 min at 37 °C. After washing three times, the cells were collected and measured at 488 nm excitation and 525 nm emission by a microplate reader (Tecan, Switzerland) according to the manufacturer’s instructions (Beyotime, Shanghai, China). The protein concentrations were determined by using a BCA assay (TaKaRa, Kusatsu, Japan).

HCT-116 and SW480 cells = assay: WB of EMT and apoptosis markers with ROS scavengers; assay type: cell-based, Human; conditions: 20 μM SFI003 with 5 mM NAC or 100 μM Trolox, 72 h
Procedure: After cell lysates were prepared, protein concentrations were determined by a BCA assay (TaKaRa, Kusatsu, Japan). Equal amounts of protein were separated by SDS–PAGE and transferred to polyvinylidene difluoride membranes. After normalization, the blots were probed with appropriate antibodies, as described previously.

HCT-116 xenografts = HCT-116 xenografts in SCID mice; assay type: in vivo; conditions: HCT-116 xenografts, 100 mg/kg orally, two weeks
Procedure: To explore the effect of SFI003 on the growth of CRC, approximately 3 × 10^6 HCT-116 cells or 8 × 10^6 SW480 cells were collected and mixed with Matrigel (Corning, NY, USA) at a 1:1 ratio by volume and then injected into the lower back region of mice. When tumors were palpable, mice were randomly divided into four groups. One group received vehicle as a control, while the other three groups were orally administered SFI003 at a dosage of 100 or 200 mg/kg or capecitabine at a dosage of 100 mg/kg for two continuous weeks. The tumor sizes and mouse body weights were monitored every other day. At the end of the experiment, tumors and blood samples were collected for further studies. The tumor size was evaluated according to Eq.: tumor size (mm^3) = (length × width^2) × 0.5.

SRSF3 = target: T1, SRSF3 (Homo sapiens, UniProt P84103); assay: Biological experimental assays of screened compounds against SRSF3; conditions: screening hit among 22 selected compounds
T1 sequence (P84103 1-164): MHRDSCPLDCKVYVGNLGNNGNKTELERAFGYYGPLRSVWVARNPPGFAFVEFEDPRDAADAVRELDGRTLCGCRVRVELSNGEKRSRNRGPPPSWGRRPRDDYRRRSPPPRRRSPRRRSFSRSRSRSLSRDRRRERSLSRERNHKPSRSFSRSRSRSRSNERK

HCT-116 cells = assay: MTT assay in HCT-116 cells; assay type: cell-based, Human; conditions: Homo sapiens; HCT-116 cells, 72 h
Procedure: (§1) Human CRC cell lines were purchased from the American Type Culture Collection (VA, USA). HCT-116 cells were cultured in DMEM (HyClone, Utah, USA) containing 10% fetal bovine serum (FBS; Gibco, NY, USA). SW480 cells were cultured in RPMI 1640 medium (HyClone, Utah, USA) containing 10% FBS. All cells were cultured in an incubator (Thermo, CA, USA) at a constant temperature of 37 °C and 5% CO2. N-Acetylcysteine (NAC), Trolox, MLN4924, 5-Fu, and capecitabine were purchased from MedChemExpress LLC (Shanghai, China). MG132 was purchased from Santa Cruz Biotech (CA, USA). Chloroquine (CHQ) was purchased from Sigma (CA, USA). Rapamycin was purchased from Beyotime (Shanghai, China). Primary antibodies against SRSF3 and E-Cadherin were purchased from Abcam (Cambridge, UK). Primary antibodies against N-Cadherin, Caspase 3, DHCR24, CAT, Akt and phospho-Akt (Ser473) were purchased from Cell Signaling Technology (MA, USA). Primary antibodies against β-actin, mTOR, and phospho-mTOR ([…]) were purchased from Beyotime (Shanghai, China). Primary antibody against Vimentin was purchased from Proteintech (Wuhan, China). Primary antibody against Bcl-2 was purchased from Santa Cruz Biotech (CA, USA). Primary antibody against Flag was purchased from MBL Beijing Biotech (Beijing, China). CRC cells were transfected with 100 nM siRNA or treated with various doses of SFI003 for 24 h, 48 h, or 72 h before being subjected to MTT assay as described previously.

SW480 cells = assay: MTT assay in SW480 cells; assay type: cell-based, Human; conditions: Homo sapiens; SW480 cells, 72 h
Procedure: as §1

SMILES: Cc1c(C)c2c(c(C)c1O)CCC(C)(C(=O)O)O2 (stereo not drawn) [Trolox]
effect on SFI003-induced ROS (ROS): significantly reversed | effect on SFI003-induced apoptosis and migration disability (HCT-116 and SW480 cells): reversed

SMILES: CCCCCOC(=O)Nc1nc(=O)n([C@@H]2O[C@H](C)[C@@H](O)[C@H]2O)cc1F [capecitabine, reference compound]
number of tumors that disappeared (HCT-116 xenografts): one

inhibitory activity against SRSF3 (SRSF3): satisfactory inhibitory activity
SMILES: C/C(=N\Nc1nc(-c2ccc(O)cc2)cs1)C1=CSCN1 [compound 6]

IC50 (HCT-116 cells): 33.2 µM | IC50 (SW480 cells): 16.8 µM
SMILES: CO[C@H]1C[C@@H]2CC[C@@H](C)[C@@](O)(O2)C(=O)C(=O)N2CCCC[C@H]2C(=O)O[C@H]([C@H](C)C[C@@H]2CC[C@@H](O)[C@H](OC)C2)CC(=O)[C@H](C)/C=C(\C)[C@@H](O)[C@@H](OC)C(=O)[C@H](C)C[C@H](C)/C=C/C=C/C=C/1C [rapamycin, reference compound]
